ChEMBL document CHEMBL4354830, “Discovery of Benzo[cd]indol-2(1H)-ones and Pyrrolo[4,3,2-de]quinolin-2(1H)-ones as Bromodomain and Extra-Terminal Domain (BET) Inhibitors with Selectivity for the First Bromodomain with Potential High Efficiency against Acute Gouty Arthritis” (J Med Chem, 2019)
Active and inactive are the calls of the source. The rule behind the calls is not given here.

Assays:
[1] = species on record: Homo sapiens; assay: Selectivity index, ratio of IC50 for BRD2 BD2 (unknown origin) to IC50 for BRD2 BD1 (unknown origin) by AlphaScreen assay
[2] = Metabolic stability in dog liver microsomes assessed as intrinsic clearance measured per mg protein upto 60 mins by LC/MS-MS analysis; type: ADME, Canis lupus familiaris, Microsome; settings: read-out: CLH
[3] = Metabolic stability in dog liver microsomes assessed as half life measured upto 60 mins by LC/MS-MS analysis; type: ADME, Canis lupus familiaris, Microsome
[4] = system: Rattus norvegicus; assay: In vivo inhibition of MSU-induced NLRP3 and ASC co-localization in synovial tissue of Sprague-Dawley rat model of acute gout arthritis at 1 mg/kg, ia administered 1 hr before MSU challenge and measured upto 24 hrs by immunofluorescence based confocal microscopy analysis; type: functional, organism-based
[5] = target: T1, Bromodomain-containing protein 4 (Homo sapiens, UniProt O60885); assay: Inhibition of BRD4 BD1 in human THP1 cells assessed as inhibition of MSU-induced pyroptosis by measuring caspase-/PI- cells at 1 uM incubated for 1 hr followed by MSU treatment and measured after 12 hrs by PI/caspase 1 double staining based flow cytometric analysis (reference value: 76.2 %); type: cell-based; parameters: scale not given: the % may be the effect or the level left
[6] = target: T1, Bromodomain-containing protein 4; assay: Inhibition of BRD4 BD1 in human THP1 cells assessed as inhibition of MSU-induced co-localization of NLRP3 and ASC at 1 uM incubated for 1 hr followed by MSU treatment and measured after 12 hrs by immunofluorescence based confocal microscopy analysis; type: cell-based
[7] = Metabolic stability in monkey liver microsomes assessed as half life measured upto 60 mins by LC/MS-MS analysis; type: ADME, Macaca mulatta, Microsome; settings: rhesus monkey

Ratio IC50 [1]: 2.4
microsomal CLint [2]: 133 µL/min/mg
half-life [3]: 10.4 min
Activity [5]: 86.6%
inhibition [6]: Active
half-life [7]: 10.3 min
Compound: COc1ccccc1S(=O)(=O)Nc1ccc2c3c(cc(-n4cnc(C)c4)nc13)C(=O)N2C
inhibition [4]: Active
